Test results reported in patent US20150105252A1, “SUBSTITUTED PYRAZOLES AS HERBICIDES” (E I DU PONT DE NEMOURS AND COMPANY, priority 2013, published 2015).

Experiments:
windgrass = assay: Test C postemergence; format: in vivo, Apera spica-venti; conditions: 62 g ai/ha, scale 0 to 100
barley = assay: Test C postemergence; format: in vivo, Hordeum vulgare; conditions: scale 0 to 100
deadnettle = assay: Test C postemergence; format: in vivo, Lamium amplexicaule; conditions: for Deadnettle plant response rating: scale 0 to 100
Text: Seeds of plant species selected from blackgrass (Alopecurus myosuroides), ryegrass, Italian (Italian ryegrass, Lolium multiflorum), wheat (winter wheat, Triticum aestivum), galium (catchweed bedstraw, Galium aparine), corn (Zea mays), crabgrass, large (large crabgrass, Digitaria sanguinalis), foxtail, giant (giant foxtail, Setaria faberii), johnsongrass (Sorghum halepense), lambsquarters (Chenopodium album), morningglory (Ipomoea coccinea), nutsedge, yellow (yellow nutsedge, Cyperus esculentus), pigweed (redroot pigweed, Amaranthus retroflexus), ragweed (common ragweed, Ambrosia elation), soybean (Glycine max), barnyardgrass (Echinochloa crus-galli), oilseed rape (Brassica napus), waterhemp (common waterhemp, Amaranthus rudis), oat, wild (wild oat, Avena fatua), kochia (Kochia scoparia), Surinam grass (Brachiaria decumbens), foxtail, green (green foxtail, Setaria viridis), goosegrass (Eleusine indica), bromegrass, downy (downy bromegrass, Bromus tectorum), nightshade (eastern black nightshade, Solanum ptycanthum), cocklebur (common cocklebur, Xanthium strumarium), cupgrass, woolly (woolly cupgrass, Eriochloa villosa), bermudagrass (Cynodon dactylon), sunflower, (common oilseed sunflower, Helianthus annuus), Russian thistle (Salsola kali), and velvetleaf (Abutilon theophrasti) were planted into a blend of loam soil and sand and treated preemergence with test chemicals formulated in a non-phytotoxic solvent mixture which included a surfactant.
At the same time, plants selected from these crop and weed species and also chickweed (common chickweed, Stellaria media), canarygrass (littleseed canarygrass, Phalaris minor), and deadnettle (henbit deadnettle, Lamium amplexicaule), were planted in pots containing Redi-Earth® planting medium (Scotts Company, 14111 Scottslawn Road, Marysville, Ohio 43041) comprising spaghnum peat moss, vermiculite, wetting agent and starter nutrients and treated with postemergence applications of test chemicals formulated in the same manner. Plants ranged in height from 2 to 18 cm (1- to 4-leaf stage) for postemergence treatments. Treated plants and controls were maintained in a greenhouse for 13 to 15 days, after which time all species were compared to controls and visually evaluated. Plant response ratings, summarized in Table C, are based on a scale of 0 to 100 where 0 is no effect and 100 is complete control. A dash (-) response means no test result.

wild poinsettia = assay: Test F preemergence; format: in vivo, Euphorbia heterophylla
Text: (§1) Seeds of plant species selected from corn (Zea mays), soybean (Glycine max), velvetleaf (Abutilon theophrasti), lambsquarters (Chenopodium album), wild poinsettia (Euphorbia heterophylla), pigweed, palmer (palmer pigweed, Amaranthus palmeri), common waterhemp (Amaranthus rudis), surinam grass (Brachiaria decumbens), large crabgrass (Digitaria sanguinalis), crabgrass, Brazil (Brazilian crabgrass, Digitaria horizontalis), fall panicum (Panicum dichotomiflorum), giant foxtail (Setaria faberii), green foxtail (Setaria viridis), goosegrass (Eleusine indica), johnsongrass (Sorghum halepense), common ragweed (Ambrosia elation), barnyardgrass (Echinochloa crus-galli), southern sandbur (Cenchrus echinatus), arrowleaf sida (Sida rhombifolia), Italian ryegrass (Lolium multiflorum), dayflower, VA (Virginia (VA) dayflower, Commelina virginica), field bindweed (Convolvulus arvensis), cocklebur (common cocklebur, Xanthium strumarium), morningglory (Ipomoea coccinea), nightshade (eastern black nightshade, Solanum ptycanthum), kochia (Kochia scoparia), yellow nutsedge (Cyperus esculentus), and hairy beggarticks (Bidens pilosa), were planted into a silt loam soil and treated preemergence with test chemicals formulated in a non-phytotoxic solvent mixture which included a surfactant.
(§2) At the same time, plants from these crop and weed species and also horseweed (Canada horseweed, Conyza canadensis), smartweed (ladysthumb smartweed, Polygonum persicaria), waterhemp_RES1, (ALS & Triazine resistant common waterhemp, Amaranthus rudis), and waterhemp_RES2, (ALS & HPPD resistant common waterhemp, Amaranthus rudis) were treated with postemergence applications of test chemicals formulated in the same manner. Plants ranged in height from 2 to 18 cm for postemergence treatments (1- to 4-leaf stage). Treated plants and controls were maintained in a greenhouse for 14 to 21 days, after which time all species were compared to controls and visually evaluated. Plant response ratings, summarized in Table F, are based on a scale of 0 to 100 where 0 is no effect and 100 is complete control. A dash (-) response means no test result.

yellow nutsedge = assay: Test F preemergence; format: in vivo, Cyperus esculentus
Text: as §1, §2

velvetleaf = assay: Test F preemergence; format: in vivo, Abutilon theophrasti
Text: as §1, §2

johnsongrass = assay: Test F preemergence; format: in vivo, Sorghum halepense
Text: as §1, §2

kochia = assay: Test A preemergence; format: in vivo, Kochia scoparia
In short: (§3)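 Injury readout: eye-scored versus untreated controls, 0 to 100. Exposure period: ~10 days, greenhouse. Application: soil-directed spray over sown seed (pre) or spray on seedlings 2–10 cm tall with one or two leaves (post), compound carried in non-phytotoxic solvent including surfactant.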

blackgrass = assay: Test A postemergence; format: in vivo, Alopecurus myosuroides
In short: as §3

[1] = postemergence, 250 g ai/ha, scale 0 to 100 (0 no effect, 100 complete control)
[2] = postemergence, 125 g ai/ha, scale 0 to 100, 0 no effect, 100 complete control
[3] = Preemergence, 31 g ai/ha, scale 0 to 100
[4] = Preemergence, 62 g ai/ha, scale 0 to 100
[5] = Preemergence, 125 g ai/ha, scale 0 to 100
[6] = preemergence, 8 g ai/ha, scale 0 to 100, 100 is complete control
[7] = preemergence, 16 g ai/ha, scale 0 to 100, 100 is complete control
[8] = 125 g ai/ha, visual injury, 0 to 100 scale, approx. 10 days
[9] = 500 g ai/ha, visual injury after approx. 10 days, 0 to 100 scale (0 no effect, 100 complete control)
[10] = Postemergence, 500 g ai/ha, 0 to 100 scale (0 no effect, 100 complete control)
[11] = postemergence, 125 g ai/ha, about 10 days, visual rating on 0 to 100 scale (0 no effect, 100 complete control)
[12] = Preemergence, 250 g ai/ha, scale 0 to 100

CCc1cc(C(=O)NCC(F)(F)F)nn1Cc1cccc(OC(F)(F)F)c1 [Compound 20]
Windgrass plant response rating (windgrass): 10 | Barley plant response rating (barley; Postemergence, 31 g ai/ha): 15

CCCNC(=O)c1cc(CC)n(Cc2cccc(OC(F)(F)F)c2)n1 [Compound 27]
Windgrass plant response rating (windgrass): 20 | Barley plant response rating (barley; Postemergence, 31 g ai/ha): 10

CCc1cc(C(=O)NOC(C)C)nn1Cc1cccc(OC(F)(F)F)c1 [Compound 70]
Deadnettle plant response rating (deadnettle; Postemergence, 31 g ai/ha): 25 | Plant response rating, Deadnettle (deadnettle; [1]): 90 | Plant response rating, Deadnettle (deadnettle; postemergence, 62 g ai/ha, scale 0 to 100, 0 no effect, 100 complete control): 70 | Plant response rating, Deadnettle (deadnettle; [2]): 70 | Windgrass plant response rating (windgrass): 25 | Barley plant response rating (barley; Postemergence, 31 g ai/ha): 0

CCONC(=O)c1cc(CC)n(Cc2cccc(OC(F)(F)F)c2)n1 [Compound 72]
Deadnettle plant response rating (deadnettle; Postemergence, 31 g ai/ha): 40 | Deadnettle plant response rating (deadnettle; postemergence, 62 g ai/ha): 40 | Plant response rating, Deadnettle (deadnettle; [1]): 70 | Plant response rating, Deadnettle (deadnettle; [2]): 40 | Windgrass plant response rating (windgrass): 20 | Barley plant response rating (barley; Postemergence, 31 g ai/ha): 0 | Barley plant response rating (barley; postemergence, 62 g ai/ha): 5

Cc1cc(C(=O)NCC(F)(F)F)nn1Cc1ccnc(C(F)(F)F)c1 [Compound 74]
Deadnettle plant response rating (deadnettle; Postemergence, 31 g ai/ha): 10 | Deadnettle plant response rating (deadnettle; postemergence, 62 g ai/ha): 60 | Plant response rating, Deadnettle (deadnettle; [1]): 80 | Plant response rating, Deadnettle (deadnettle; [2]): 70 | Windgrass plant response rating (windgrass): 0 | Barley plant response rating (barley; Postemergence, 31 g ai/ha): 0 | Barley plant response rating (barley; postemergence, 62 g ai/ha): 0

CCc1cc(-c2ccc(C(F)(F)F)cc2)nn1Cc1ccnc(C(F)(F)F)c1 [Compound 110]
Plant response rating, Wild Poinsettia (wild poinsettia; [3]): 35 | Plant response rating, Wild Poinsettia (wild poinsettia; [4]): 50 | Plant response rating, Wild Poinsettia (wild poinsettia; [5]): 80 | Plant response rating, Wild Poinsettia (wild poinsettia; [6]): 25 | Plant response rating, Wild Poinsettia (wild poinsettia; [7]): 25 | Plant response rating, Yellow Nutsedge (yellow nutsedge; [3]): 0 | Plant response rating, Yellow Nutsedge (yellow nutsedge; [4]): 0 | Plant response rating, Yellow Nutsedge (yellow nutsedge; [5]): 0 | Plant response rating, Yellow Nutsedge (yellow nutsedge; [6]): 0 | Plant response rating, Yellow Nutsedge (yellow nutsedge; [7]): 0 | Plant response rating, Velvetleaf (velvetleaf; [3]): 30 | Plant response rating, Velvetleaf (velvetleaf; [4]): 40 | Plant response rating, Velvetleaf (velvetleaf; [5]): 75 | Plant response rating, Velvetleaf (velvetleaf; [6]): 20 | Plant response rating, Velvetleaf (velvetleaf; [7]): 35 | Plant response rating, Johnsongrass (johnsongrass; [3]): 15 | Plant response rating, Johnsongrass (johnsongrass; [4]): 25 | Plant response rating, Johnsongrass (johnsongrass; [5]): 80 | Plant response rating, Johnsongrass (johnsongrass; [6]): 0 | Plant response rating, Johnsongrass (johnsongrass; [7]): 0

CCc1cc(C(=O)NOC(C)C)nn1Cc1ccnc(OC(F)F)c1 [Compound 126]
Kochia plant response rating (kochia; [8]): 100 | Kochia plant response rating (kochia; [9]): 100 | Blackgrass plant response rating (blackgrass; [10]): 90 | Blackgrass plant response rating (blackgrass; [11]): 90

CCCc1cc(C(=O)NCC(F)(F)F)nn1Cc1ccnc(OC(F)F)c1 [Compound 127]
Kochia plant response rating (kochia; [8]): 100 | Kochia plant response rating (kochia; [9]): 100 | Blackgrass plant response rating (blackgrass; [10]): 90 | Blackgrass plant response rating (blackgrass; [11]): 90

CCOc1cc(C(=O)NCC(F)(F)F)nn1Cc1ccnc(OC(F)F)c1 [Compound 128]
Kochia plant response rating (kochia; [8]): 100 | Kochia plant response rating (kochia; [9]): 100 | Blackgrass plant response rating (blackgrass; [10]): 100 | Blackgrass plant response rating (blackgrass; [11]): 90

CCCNC(=O)c1cc(OCC)n(Cc2ccnc(OC(F)F)c2)n1 [Compound 136]
Kochia plant response rating (kochia; [8]): 100 | Kochia plant response rating (kochia; [9]): 100 | Blackgrass plant response rating (blackgrass; [10]): 100 | Blackgrass plant response rating (blackgrass; [11]): 80

CCCc1cc(C(=O)NC(C)C)nn1Cc1cc(C(F)(F)F)nn1C [Compound 201]
Plant response rating, Wild Poinsettia (wild poinsettia; [4]): 5 | Plant response rating, Wild Poinsettia (wild poinsettia; [5]): 25 | Plant response rating, Wild Poinsettia (wild poinsettia; [12]): 65 | Plant response rating, Wild Poinsettia (wild poinsettia; [7]): 0 | Plant response rating, Yellow Nutsedge (yellow nutsedge; [4]): 0 | Plant response rating, Yellow Nutsedge (yellow nutsedge; [5]): 0 | Plant response rating, Yellow Nutsedge (yellow nutsedge; [12]): 25 | Plant response rating, Yellow Nutsedge (yellow nutsedge; [7]): 0 | Plant response rating, Velvetleaf (velvetleaf; [4]): 0 | Plant response rating, Velvetleaf (velvetleaf; [5]): 30 | Plant response rating, Velvetleaf (velvetleaf; [12]): 100 | Plant response rating, Velvetleaf (velvetleaf; [7]): 0 | Plant response rating, Velvetleaf (velvetleaf; preemergence, scale 0 to 100, 100 is complete control): 0 | Plant response rating, Johnsongrass (johnsongrass; [4]): 25 | Plant response rating, Johnsongrass (johnsongrass; [5]): 80 | Plant response rating, Johnsongrass (johnsongrass; [12]): 95 | Plant response rating, Johnsongrass (johnsongrass; [7]): 0

CCCc1cc(C(=O)NC2CC2)nn1Cc1ccnc(OC(F)F)c1 [Compound 205]
Kochia plant response rating (0 to 100 scale) (kochia; 125 g ai/ha, visual injury approx. 10 days after treatment): 100 | Blackgrass plant response rating (blackgrass; [10]): 90 | Blackgrass plant response rating (blackgrass; [11]): 70

CCc1cc(C(=O)NCC(F)(F)F)nn1Cc1ccnc(Br)c1 [Compound 224]
Plant response rating, Wild Poinsettia (wild poinsettia; [4]): 60 | Plant response rating, Wild Poinsettia (wild poinsettia; [5]): 65 | Plant response rating, Wild Poinsettia (wild poinsettia; [12]): 85 | Plant response rating, Yellow Nutsedge (yellow nutsedge; [4]): 0 | Plant response rating, Yellow Nutsedge (yellow nutsedge; [5]): 35 | Plant response rating, Yellow Nutsedge (yellow nutsedge; [12]): 35 | Plant response rating, Velvetleaf (velvetleaf; [4]): 50 | Plant response rating, Velvetleaf (velvetleaf; [5]): 80 | Plant response rating, Velvetleaf (velvetleaf; [12]): 95 | Plant response rating, Johnsongrass (johnsongrass; [4]): 0 | Plant response rating, Johnsongrass (johnsongrass; [5]): 35 | Plant response rating, Johnsongrass (johnsongrass; [12]): 75
